Reference: patent publication US11022605B2 (priority 2016, dated 2021)

Key:
[1] = in vivo; cited from earlier work
[2] = test system: colon cancer; settings: cited from earlier work
[3] = test system: neuromuscular junction model (motoneurons synapsed onto skeletal muscle); assay type: cell-based

For `CC1(C)C(C=C(Cl)Cl)C1C(=O)OCc1cccc(Oc2ccccc2)c1` (stereo not drawn) [1R-cis-, permethrin], the activity of stereoisomer [1] is given as “active”.

For `CC1(C)C(C=C(Cl)Cl)C1C(=O)OCc1cccc(Oc2ccccc2)c1` (stereo not drawn) [1R-trans-, permethrin], the activity of stereoisomer [1] is given as “active”.

In the case of `O=c1[nH]c(=O)n(C2CCCO2)cc1F` (stereo not drawn) [Tegafur], the “optimal uracil to Tegafur ratio for maximizing 5-FU in the tumor relative to blood” value [2] is given as 4 to 1.

In the case of `CC1(C)C(C=C(Cl)Cl)C1C(=O)OCc1cccc(Oc2ccccc2)c1` (stereo not drawn) [cis-permethrin], the “toxicity relative to trans isomers” value [1] is listed as “about ten times more toxic”.

In the case of `O=c1cc[nH]c(=O)[nH]1` [uracil], the “effect on toxicity of Tegafur” value [2] is listed as “enhances the toxicity of Tegafur”.

For curare, the dip frequency sensitivity [3] was “approximately exponential”, the “effect on contractile response” value [3] was “inhibitory based on concentration” and the “form of fitted dose-response curve of muscle contraction” value [3] was “biphasic curve”. The “plateau region of biphasic curve versus stimulation frequency” value [3] was “shrinks exponentially for increasing frequency”.
